Experimental data as given in patent US6706663B2, “Herbicidal 3-heterocyclic substituted benzisothiazole and benzisoxazole compounds” (Wyeth, priority 2000, dated 2004).

How the values were obtained:
[1] = tested on: ABUTH (Abutilon theophrasti); assay: Postemergence herbicidal evaluation; format: in vivo, Medic.; conditions: rate 0.0620 kg/ha
Procedure: (§1) In the tests, seedling plants are grown in jiffy flats for about two weeks. […] After spraying, the plants are placed on greenhouse benches and are cared for in accordance with conventional greenhouse procedures. From four to five weeks after treatment, the seedling plants are examined and rated according to the rating system set forth below. Where more than one test is involved for a given compound, the data are averaged.
(§2) Results of herbicide evaluation are expressed on a rating scale (0-9). The scale is based upon a visual observation of plant stand, vigor, malformation, size, chlorosis and overall plant appearance as compared with a control.

[2] = tested on: AMBEL (Ambrosia artemisifolia); assay: Postemergence herbicidal evaluation; format: in vivo, L.; conditions: rate 0.0620 kg/ha
Procedure: as §1, §2

[3] = tested on: CASOB (Cassia obtusifolia); assay: Postemergence herbicidal evaluation; format: in vivo, L.; conditions: rate 0.0620 kg/ha
Procedure: as §1, §2

[4] = tested on: GALAP (Galium aparine); assay: Postemergence herbicidal evaluation; format: in vivo; conditions: rate 0.0620 kg/ha
Procedure: as §1, §2

[5] = tested on: IPOHE (Ipomoea hederacea); assay: Postemergence herbicidal evaluation; format: in vivo, (L.) Jacq.; conditions: rate 0.0620 kg/ha
Procedure: as §1, §2

[6] = tested on: ECHCG (Echinochloa crus-galli); assay: Postemergence herbicidal evaluation; format: in vivo, (L.) Beau; conditions: rate 0.0620 kg/ha
Procedure: as §1, §2

[7] = tested on: SETVI (Setaria viridis); assay: Postemergence herbicidal evaluation; format: in vivo, (L.) Beau; conditions: rate 0.0620 kg/ha
Procedure: In the tests, seedling plants are grown in jiffy flats for about two weeks. The test compounds are dispersed in 50/50 acetone/water mixtures containing 0.5% TWEEN® 20, a polyoxyethylene sorbitan monolaurate surfactant of Atlas Chemical Industries, in sufficient quantities to provide the equivalent of about 0.0040 kg to 1.000 kg per hectare of active compound when applied to the plants through a spray nozzle operating at 40 psi for a predetermined time. After spraying, the plants are placed on greenhouse benches and are cared for in accordance with conventional greenhouse procedures. From four to five weeks after treatment, the seedling plants are examined and rated according to the rating system set forth below. Where more than one test is involved for a given compound, the data are averaged.
as §2

[8] = tested on: GLXMAW (Soybean, Williams); assay: Postemergence herbicidal evaluation; format: in vivo, Glycine max, (L.) Merr. cv Williams; conditions: rate 0.0620 kg/ha
Procedure: as §1, §2

[9] = tested on: ORYSAT (Rice, Tebonnet); assay: Postemergence herbicidal evaluation; format: in vivo, Oryza sativa, (L.) Tebonnet; conditions: rate 0.0620 kg/ha
Procedure: as §1, §2

[10] = tested on: TRZAWR (Wheat, Winter, cv Riband); assay: Postemergence herbicidal evaluation; format: in vivo, Triticum aestivum; conditions: rate 0.0620 kg/ha
Procedure: as §1, §2

[11] = tested on: ZEAMX (Corn, Field); assay: Postemergence herbicidal evaluation; format: in vivo, Zea mays, L.; conditions: rate 0.0620 kg/ha
Procedure: as §1, §2

[12] = tested on: ABUTH (Abutilon theophrasti); assay: Preemergence herbicidal evaluation; format: in vivo, Medic.; conditions: Rate 0.2500 kg/ha; preemergence; rated 4-5 weeks after treatment
Source text: as §2
(§3) The preemergence herbicidal activity of the test compounds of the present invention is exemplified by the following tests in which the seeds of a variety of monocotyledonous and dicotyledonous plants are separately mixed with potting soil and planted on top of approximately one inch of soil in separate pint cups. […] The treated cups are then placed on greenhouse benches, watered and cared for in accordance with conventional greenhouse procedures. From four to five weeks after treatment, the tests are terminated and each cup is examined and rated according to the rating system provided in Example 87. The plant species used and the compounds evaluated are the same as those shown in Example 87.

[13] = tested on: AMBEL (Ambrosia artemisifolia); assay: Preemergence herbicidal evaluation; format: in vivo, L.; conditions: Rate 0.2500 kg/ha; preemergence; rated 4-5 weeks after treatment
Source text: as §2, §3

[14] = tested on: CASOB (Cassia obtusifolia); assay: Preemergence herbicidal evaluation; format: in vivo, L.; conditions: Rate 0.2500 kg/ha; preemergence; rated 4-5 weeks after treatment
Source text: as §2, §3

[15] = tested on: CHEAL (Chenopodium album); assay: Preemergence herbicidal evaluation; format: in vivo, L.; conditions: Rate 0.2500 kg/ha; preemergence; rated 4-5 weeks after treatment
Source text: as §2, §3

[16] = tested on: GALAP (Galium aparine); assay: Preemergence herbicidal evaluation; format: in vivo; conditions: Rate 0.2500 kg/ha; preemergence; rated 4-5 weeks after treatment
Source text: as §2, §3

[17] = tested on: IPOHE (Ipomoea hederacea); assay: Preemergence herbicidal evaluation; format: in vivo, (L.) Jacq.; conditions: Rate 0.2500 kg/ha; preemergence; rated 4-5 weeks after treatment
Source text: as §2, §3

[18] = tested on: ECHCG (Echinochloa crus-galli); assay: Preemergence herbicidal evaluation; format: in vivo, (L.) Beau; conditions: Rate 0.2500 kg/ha; preemergence; rated 4-5 weeks after treatment
Source text: as §2, §3

[19] = tested on: SETVI (Setaria viridis); assay: Preemergence herbicidal evaluation; format: in vivo, (L.) Beau; conditions: Rate 0.2500 kg/ha; preemergence; rated 4-5 weeks after treatment
Source text: as §2, §3

[20] = tested on: GLXMAW (Soybean, Williams); assay: Preemergence herbicidal evaluation; format: in vivo, Glycine max, (L.) Merr. cv Williams; conditions: Rate 0.2500 kg/ha; preemergence; rated 4-5 weeks after treatment
Source text: as §2, §3

[21] = tested on: ORYSAT (Rice, Tebonnet); assay: Preemergence herbicidal evaluation; format: in vivo, Oryza sativa, (L.) Tebonnet; conditions: Rate 0.2500 kg/ha; preemergence; rated 4-5 weeks after treatment
Source text: as §2, §3

[22] = tested on: TRZAWR (Wheat, Winter, cv Riband); assay: Preemergence herbicidal evaluation; format: in vivo, Triticum aestivum; conditions: Rate 0.2500 kg/ha; preemergence; rated 4-5 weeks after treatment
Source text: as §2, §3

[23] = tested on: ZEAMX (Corn, Field); assay: Preemergence herbicidal evaluation; format: in vivo, Zea mays, L.; conditions: Rate 0.2500 kg/ha; preemergence; rated 4-5 weeks after treatment
Source text: as §2, §3

[24] = tested on: ECHORC (Echinochloa oryzoides); assay: Flooded paddy, preemergence weed control; format: in vivo, Echinochloa oryzoides (Ard.) Fritsch.; conditions: rate 0.1250 kg/ha, rated 3-4 weeks after treatment, 0-9 rating scale
Procedure: as §2
(§4) Preemergence herbicidal activity under flooded paddy conditions is determined as follows: plant seeds or propagating organs are planted in the top 0.5 cm of silt loam soil in 32 oz. plastic containers with a diameter of 10.5 cm and no drainage holes. Water is added to these containers and maintained at 1.5 to 3 cm above the soil surface for the duration of the experiment. […] The treated containers are placed on greenhouse benches and cared for in accordance with conventional greenhouse procedures.

[25] = tested on: CYPIR (Cyperus iria); assay: Flooded paddy, preemergence weed control; format: in vivo; conditions: rate 0.1250 kg/ha, rated 3-4 weeks after treatment, 0-9 rating scale
Procedure: as §2, §4

[26] = tested on: CYPSE (Cyperus serotinus); assay: Flooded paddy, preemergence weed control; format: in vivo, Rottb.; conditions: rate 0.1250 kg/ha, rated 3-4 weeks after treatment, 0-9 rating scale
Procedure: as §2
Preemergence herbicidal activity under flooded paddy conditions is determined as follows: plant seeds or propagating organs are planted in the top 0.5 cm of silt loam soil in 32 oz. plastic containers with a diameter of 10.5 cm and no drainage holes. Water is added to these containers and maintained at 1.5 to 3 cm above the soil surface for the duration of the experiment. The test compounds are applied as aqueous/acetone mixtures 50/50 v/v pipetted directly into the flood water to give the equivalent of about 0.0080 to 0.1250 kg/ha of active ingredient. The treated containers are placed on greenhouse benches and cared for in accordance with conventional greenhouse procedures. Three to four weeks after treatment, the test is terminated and each container is examined and herbicidal effect rated according to the rating system provided in Example 87.

[27] = tested on: SAGPY (Sagittaria pygmaea); assay: Flooded paddy, preemergence weed control; format: in vivo, L.; conditions: rate 0.1250 kg/ha, rated 3-4 weeks after treatment, 0-9 rating scale
Procedure: as §2, §4

[28] = tested on: ORYSAT (Rice, Tebonnet); assay: Flooded paddy, post-transplant rice tolerance; format: in vivo, Oryza sativa, (L.) Tebonnet; conditions: in vivo
Procedure: as §2
The tolerance of transplanted rice to post-transplanted herbicide application is determined as follows: two ten-day-old rice seedlings (cv. Tebonnet) are transplanted into silt loam soil in 32 oz. plastic containers with a diameter of 10.5 cm and no drainage holes. After transplanting, the containers are flooded and the water level is maintained at 1.5 to 3 cm above the soil surface. […] The treated containers are placed on greenhouse benches, watered such that the water level is maintained as stated above, and cared for in accordance with conventional greenhouse procedures.

Cn1c(C(F)(F)F)cc(=O)n(-c2ccc3c(c2)C(c2cccc[n+]2[O-])=NS3(=O)=O)c1=O [Compound 15, 1-methyl-3-[3-(2-pyridyl)-1,2-benzisothiazol-5-yl]-6-(trifluoromethyl)uracil N′,S,S-trioxide]
Postemergence herbicidal rating, ABUTH [1]: 6.0
Postemergence herbicidal rating, AMBEL [2]: 9.0
Postemergence herbicidal rating, CASOB [3]: 1.0
Postemergence herbicidal rating, GALAP [4]: 1.0
Postemergence herbicidal rating, IPOHE [5]: 9.0
Postemergence herbicidal rating, ECHCG [6]: 1.0
Postemergence herbicidal rating, SETVI [7]: 1.0
Postemergence herbicidal rating, GLXMAW [8]: 5.0
Postemergence herbicidal rating, ORYSAT [9]: 3.5
Postemergence herbicidal rating, TRZAWR [10]: 3.5
Postemergence herbicidal rating, ZEAMX [11]: 5.0
ABUTH preemergence herbicidal rating [12]: 7.0
AMBEL preemergence herbicidal rating [13]: 7.0
CASOB preemergence herbicidal rating [14]: 0.0
CHEAL preemergence herbicidal rating [15]: 9.0
GALAP preemergence herbicidal rating [16]: 0.0
IPOHE preemergence herbicidal rating [17]: 6.0
ECHCG preemergence herbicidal rating [18]: 5.0
SETVI preemergence herbicidal rating [19]: 5.0
GLXMAW preemergence herbicidal rating [20]: 2.0
ORYSAT preemergence herbicidal rating [21]: 3.0
TRZAWR preemergence herbicidal rating [22]: 3.0
ZEAMX preemergence herbicidal rating [23]: 1.0
herbicidal rating, ECHORC [24]: 0.0
herbicidal rating, CYPIR [25]: 0.0
herbicidal rating, CYPSE [26]: 0.0
herbicidal rating, SAGPY [27]: 0.0
herbicidal rating, ORYSAT (rice tolerance) [28]: 0.0
